Experimental findings from patent US20230219931A1, “FUSED HETEROARYL HYDROXAMATES AS STING AGONISTS” (BiSiChem Co., Ltd., priority 2022, published 2023) are described below.

Counter-ions that a name gives are not always drawn.

What is called EC50 is the midpoint of the concentration-response curve. A higher EC50 goes with weaker potency.

For the experiment, the system named is ISG reporter activity in THP1-Dual cell. Put plainly: ISG reporter assay. The experiment is classed as cell-based. Conditions: Homo sapiens, compounds incubated with cells for 24 hours, QUANTI-Blue, absorbance at 655 nm. On the procedure: [Worded in the source for another cell line; this cell line is reported under the same test.] THP1-Blue cells (cat. no. thp-isg) were purchased from InvivoGen (Sandiago, USA). Penicillin—streptomycin (cat. no. L0022-100), Fetal Bovine Serum (FBS) (cat. no. S1480-500) and Roswell Park Memorial Institute (RPMI) 1640 media (cat. L0498-500) were purchased from biowest (Nuaille, France). Zeocin (cat. no. ant-zn-OS) and Normocin (cat. no. ant-nr-1) were purchased from InvivoGen (Sandiago, USA). QUANTI-Blue™ (cat. no. rep-qbs) was purchased from InvivoGen. THP1-Blue cells were cultured in RPMI 1640 medium with 10% heat-inactivated FBS, 100 μg/ml Normocin, 100 μg/ml Zeocin and 100 U/ml-100 μg/ml penicillin-streptomycin. The cells were incubated at 37° C. in a humidified atmosphere of 5% CO2.
THP1-Blue cells were seeded at 5×10^4 cells/well (90 μl/well). 10 μl of compounds were added to the cells and incubated for 24 hours. 20 μl of cell culture supernatant was dispensed new 96-well plate (cat. no. 30096) with 180 μl of QUANTI-Blue™ solution and incubated for 15 minutes at 37° C. The absorbance was measured by Varioskan Lux (Thermofisher Scientific, USA) at 655 nm.

Consider `CCn1nc(C)cc1C(=O)Nc1nc2cc(C(N)=O)cc(OC)c2n1C/C=C/Cn1c(NC(=O)c2cc(C)nn2CC)nc2cc(C(N)=O)cc(OCC#CC3CCN(C(=O)OCCN(C)C)CC3)c21` [Example 34, 2-(dimethylamino)ethyl (E)-4-(3-((5-carbamoyl-1-(4-(5-carbamoyl-2-(1-ethyl-3-methyl-1H-pyrazole-5-carboxamido)-7-methoxy-1H-benzo[d]imidazol-1-yl)but-2-en-1-yl)-2-(1-ethyl-3-methyl-1H-pyrazole-5-carboxamido)-1H-benzo[d]imidazol-7-yl)oxy)prop-1-yn-1-yl)piperidine-1-carboxylate], for which the 50% effective concentration (EC50) was less than 50 nM.

As to `CCn1nc(C)cc1C(=O)Nc1nc2cc(C(N)=O)cc(OC)c2n1C/C=C/Cn1c(NC(=O)c2cc(C)nn2CC)nc2cc(C(N)=O)cc(OCC#CC3CCN(C(=O)N4CCC(O)CC4)CC3)c21` [Example 18, (E)-1-(4-(5-carbamoyl-2-(1-ethyl-3-methyl-1H-pyrazole-5-carboxamido)-7-((3-(1-(4-hydroxypiperidine-1-carbonyl)piperidin-4-yl)prop-2-yn-1-yl)oxy)-1H-benzo[d]imidazol-1-yl)but-2-en-1-yl)-2-(1-ethyl-3-methyl-1H-pyrazole-5-carboxamido)-7-methoxy-1H-benzo[d]imidazole-5-carboxamide], the EC50 was less than 50 nM. As for `CCn1nc(C)cc1C(=O)Nc1nc2cc(C(N)=O)cc(OC)c2n1C/C=C/Cn1c(NC(=O)c2cc(C)nn2CC)nc2cc(C(N)=O)cc(OCC#CC3CCN(C(=O)OC4CCCC4)CC3)c21` [Example 7, cyclopentyl (E)-4-(3-((5-carbamoyl-1-(4-(5-carbamoyl-2-(1-ethyl-3-methyl-1H-pyrazole-5-carboxamido)-7-methoxy-1H-benzo[d]imidazol-1-yl)but-2-en-1-yl)-2-(1-ethyl-3-methyl-1H-pyrazole-5-carboxamido)-1H-benzo[d]imidazol-7-yl)oxy)prop-1-yn-1-yl)piperidine-1-carboxylate], the figure is less than 50 nM; as for `CCn1nc(C)cc1C(=O)Nc1nc2cc(C(=O)O)cc(OC)c2n1C/C=C/Cn1c(NC(=O)c2cc(C)nn2CC)nc2cc(C(N)=O)cc(OCC#CC3CCN(C(=O)OC(C)(C)C)CC3)c21` [Example 1, (E)-1-(4-(7-((3-(1-(tert-butoxycarbonyl)piperidin-4-yl)prop-2-yn-1-yl)oxy)-5-carbamoyl-2-(1-ethyl-3-methyl-1H-pyrazole-5-carboxamido)-1H-benzo[d]imidazol-1-yl)but-2-en-1-yl)-2-(1-ethyl-3-methyl-1H-pyrazole-5-carboxamido)-7-methoxy-1H-benzo[d]imidazole-5-carboxylic acid], more than 500 nM. In turn, `CCn1nc(C)cc1C(=O)Nc1nc2cc(C(=O)NOC)cc(OC)c2n1C/C=C/Cn1c(NC(=O)c2cc(C)nn2CC)nc2cc(C(N)=O)cc(OCC#CC3CCN(C(=O)OC(C)(C)C)CC3)c21` [Example 2, tert-butyl (E)-4-(3-((5-carbamoyl-2-(1-ethyl-3-methyl-1H-pyrazole-5-carboxamido)-1-(4-(2-(1-ethyl-3-methyl-1H-pyrazole-5-carboxamido)-7-methoxy-5-(methoxycarbamoyl)-1H-benzo[d]imidazol-1-yl)but-2-en-1-yl)-1H-benzo[d]imidazol-7-yl)oxy)prop-1-yn-1-yl)piperidine-1-carboxylate] yielded an EC50 of more than 500 nM.

As to `CCN(CC)S(=O)(=O)N1CCC(C#CCOc2cc(C(N)=O)cc3nc(NC(=O)c4cc(C)nn4CC)n(C/C=C/Cn4c(NC(=O)c5cc(C)nn5CC)nc5cc(C(N)=O)cc(OC)c54)c23)CC1` [Example 25, (E)-1-(4-(5-carbamoyl-2-(1-ethyl-3-methyl-1H-pyrazole-5-carboxamido)-7-methoxy-1H-benzo[d]imidazol-1-yl)but-2-en-1-yl)-7-((3-(1-(N,N-diethylsulfamoyl)piperidin-4-yl)prop-2-yn-1-yl)oxy)-2-(1-ethyl-3-methyl-1H-pyrazole-5-carboxamido)-1H-benzo[d]imidazole-5-carboxamide], the EC50 is less than 50 nM. `CCn1nc(C)cc1C(=O)Nc1nc2cc(C(N)=O)cc(OC)c2n1C/C=C/Cn1c(NC(=O)c2cc(C)nn2CC)nc2cc(C(N)=O)cc(OCC#CC3CCNCC3)c21` [Example 4, (E)-1-(4-(5-carbamoyl-2-(1-ethyl-3-methyl-1H-pyrazole-5-carboxamido)-7-((3-(piperidin-4-yl)prop-2-yn-1-yl)oxy)-1H-benzo[d]imidazol-1-yl)but-2-en-1-yl)-2-(1-ethyl-3-methyl-1H-pyrazole-5-carboxamido)-7-methoxy-1H-benzo[d]imidazole-5-carboxamide hydrochloride] registered a 50% effective concentration (EC50) of 50 to 500 nM. Consider `CCn1nc(C)cc1C(=O)Nc1nc2cc(C(N)=O)cc(OC)c2n1C/C=C/Cn1c(NC(=O)c2cc(C)nn2CC)nc2cc(C(N)=O)cc(OCC#CC3CCN(C(=O)OC(C)C)CC3)c21` [Example 5, isopropyl (E)-4-(3-((5-carbamoyl-1-(4-(5-carbamoyl-2-(1-ethyl-3-methyl-1H-pyrazole-5-carboxamido)-7-methoxy-1H-benzo[d]imidazol-1-yl)but-2-en-1-yl)-2-(1-ethyl-3-methyl-1H-pyrazole-5-carboxamido)-1H-benzo[d]imidazol-7-yl)oxy)prop-1-yn-1-yl)piperidine-1-carboxylate], for which the half-maximal effective concentration (EC50) is less than 50 nM.

Regarding `CCn1nc(C)cc1C(=O)Nc1nc2cc(C(N)=O)cc(OC)c2n1C/C=C/Cn1c(NC(=O)c2cc(C)nn2CC)nc2cc(C(N)=O)cc(OCC#CC3CCN(C(=O)OC4CC4)CC3)c21` [Example 6, cyclopropyl (E)-4-(3-((5-carbamoyl-1-(4-(5-carbamoyl-2-(1-ethyl-3-methyl-1H-pyrazole-5-carboxamido)-7-methoxy-1H-benzo[d]imidazol-1-yl)but-2-en-1-yl)-2-(1-ethyl-3-methyl-1H-pyrazole-5-carboxamido)-1H-benzo[d]imidazol-7-yl)oxy)prop-1-yn-1-yl)piperidine-1-carboxylate], the EC50 was less than 50 nM.

In turn, `CCn1nc(C)cc1C(=O)Nc1nc2cc(C(N)=O)cc(OC)c2n1C/C=C/Cn1c(NC(=O)c2cc(C)nn2CC)nc2cc(C(N)=O)cc(OCC#CCC3CCNCC3)c21` [Example 43, (E)-1-(4-(5-carbamoyl-2-(1-ethyl-3-methyl-1H-pyrazole-5-carboxamido)-7-((4-(piperidin-4-yl)but-2-yn-1-yl)oxy)-1H-benzo[d]imidazol-1-yl)but-2-en-1-yl)-2-(1-ethyl-3-methyl-1H-pyrazole-5-carboxamido)-7-methoxy-1H-benzo[d]imidazole-5-carboxamide hydrochloride] came in with an EC50 of 50 to 500 nM. In turn, `CCn1nc(C)cc1C(=O)Nc1nc2cc(C(=O)NOC)cc(OC)c2n1C/C=C/Cn1c(NC(=O)c2cc(C)nn2CC)nc2cc(C(N)=O)cc(OCC#CCN3CCN(C(=O)OC(C)(C)C)CC3)c21` [Example 36, tert-butyl (E)-4-(4-((5-carbamoyl-2-(1-ethyl-3-methyl-1H-pyrazole-5-carboxamido)-1-(4-(2-(1-ethyl-3-methyl-1H-pyrazole-5-carboxamido)-7-methoxy-5-(methoxycarbamoyl)-1H-benzo[d]imidazol-1-yl)but-2-en-1-yl)-1H-benzo[d]imidazol-7-yl)oxy)but-2-yn-1-yl)piperazine-1-carboxylate] came in with a concentration for a half-maximal effect (EC50) of 50 to 500 nM.
